Columns and labels:
[1] = target: SARS-CoV-2 S-RBD/ACE2 interaction (UniProt P0DTC2+Q9BYF1); assay: cell-based; design: species or system SARS-CoV-2 / human; settings: for inhibition at 20 µM / inhibition at 50 µM: HEK293; for IC50: HEK293 cells, 3 h incubation, n = 3, read-out: IC50 NanoBiT (inhibition of SARS-CoV-2 S-RBD/ACE2 interaction)
NanoLuc luciferase = NanoLuc luciferase (Oplophorus gracilirostris, UniProt Q9GV45, A31E/A60N/A81I/F95D/I117V/K70R/L54V/L99Q/M102K/N193R/P142E/Q151K/Q38R/Q45L/V71I/Y165I); assay: cell-based; settings: read-out: IC50 NanoLuc (inhibition of NanoLuc luciferase)
Chain of NanoLuc luciferase (Q9GV45 other isoform, or with tags, fused parts or gaps with the stated changes): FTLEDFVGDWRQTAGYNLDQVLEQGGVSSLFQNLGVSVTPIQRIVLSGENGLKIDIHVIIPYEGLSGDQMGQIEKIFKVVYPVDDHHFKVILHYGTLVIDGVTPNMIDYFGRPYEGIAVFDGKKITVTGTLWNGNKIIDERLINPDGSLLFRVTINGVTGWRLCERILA

HEK293 cells = settings: human
SARS-CoV-2 S-RBD = SARS-CoV-2 S-RBD (Severe acute respiratory syndrome coronavirus 2, UniProt P0DTC2); assay: SPR binding assay, immobilized S-RBD (BIAcore T200); settings: for Kd: immobilized S-RBD, PBS pH 7.4, 25°C; for Binding to SARS-CoV-2 S-RBD by SPR (in words): up to 100,000 nM analyte
in vitro = settings: human
SARS-CoV-2-S pseudovirus = assay: microbe, parasite or virus in culture; format: cell-based; settings: for IC50: Pseudovirus, HEK-293T, read-out: IC50 of Anti-SARS-CoV-2-S pseudovirus; for %I, SARS-CoV-2-S pseudovirus inhibition ratio at MNCC: fitted from the inhibition curve
human ACE2 = human ACE2 (Homo sapiens, UniProt Q9BYF1); assay: SPR binding assay, immobilized ACE2 (BIAcore T200); settings: for Kd: immobilized ACE2, PBS pH 7.4, 25°C; for Binding to human ACE2 by SPR (in words): up to 100,000 nM analyte
Chain of human ACE2 (Q9BYF1 18-805): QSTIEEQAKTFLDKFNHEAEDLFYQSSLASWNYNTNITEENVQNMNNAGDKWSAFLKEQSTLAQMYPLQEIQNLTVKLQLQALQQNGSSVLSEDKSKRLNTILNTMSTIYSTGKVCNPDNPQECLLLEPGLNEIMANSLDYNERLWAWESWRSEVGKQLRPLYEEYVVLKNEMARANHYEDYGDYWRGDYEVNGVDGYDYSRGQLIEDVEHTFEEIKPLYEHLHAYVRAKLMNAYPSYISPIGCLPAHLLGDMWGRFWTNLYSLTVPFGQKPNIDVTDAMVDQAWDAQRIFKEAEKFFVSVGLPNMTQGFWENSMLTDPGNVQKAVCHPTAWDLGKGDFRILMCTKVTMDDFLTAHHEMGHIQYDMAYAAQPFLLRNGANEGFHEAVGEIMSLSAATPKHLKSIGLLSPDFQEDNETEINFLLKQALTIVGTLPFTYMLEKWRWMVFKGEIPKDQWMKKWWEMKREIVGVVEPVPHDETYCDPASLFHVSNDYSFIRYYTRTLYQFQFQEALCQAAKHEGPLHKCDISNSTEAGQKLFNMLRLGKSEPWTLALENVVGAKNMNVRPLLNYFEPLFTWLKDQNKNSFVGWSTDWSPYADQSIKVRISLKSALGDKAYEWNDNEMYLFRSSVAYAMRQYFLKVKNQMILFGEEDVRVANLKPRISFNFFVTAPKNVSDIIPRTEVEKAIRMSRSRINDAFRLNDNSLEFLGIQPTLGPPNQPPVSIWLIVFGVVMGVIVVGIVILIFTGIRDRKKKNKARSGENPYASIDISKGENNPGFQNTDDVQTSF
Procedure: A BIAcore T200 instrument (GE Healthcare Life Sciences, United States) was used to evaluate the binding affinity of the test compounds to human ACE2 or SARS-CoV-2 S-RBD as previously described ([Li et al., 2017]). Briefly, both proteins were respectively immobilized on the different channels of CM5 sensor chip by a standard amine-coupling approach at a flow rate of 10 μL/min in 10 mM sodium acetate buffer (pH 4.0). The sensor surface was activated with a 7 min injection of the mixture of 50 mM N-hydroxysuccinimide (NHS) and 200 mM 1-ethyl-3-(3-dimethylaminopropyl) carbodiimide (EDC). Then 10 μg/ml of human ACE2 or 50 μg/ml of SARS-CoV-2 S-RBD was injected for 420 s and the surface was blocked with 1 M ethanolamine, pH 8.5. Series concentrations of the test compounds were injected into the flow system at a flow rate of 30 μL/min for 90 s, and the dissociation was 120 s. All binding analysis was performed in phosphate buffered saline (PBS) with 0.05% (v/v) Tween-20 and 1% DMSO (pH 7.4) at 25°C. Prior to analysis, double reference subtractions and solvent corrections were made to eliminate bulk refractive index changes, injection noise, and data drift. The binding affinity was determined by fitting to a Langmuir 1:1 binding model within the BIAcore Evaluation software (GE Healthcare Life Sciences, United States).

[2] = tested on: ACE2-expressing HEK293T cells; settings: concentration required to retain cell viability by 90%
SARS-CoV-2 pseudovirus = settings: cited from earlier work

Chain of SARS-CoV-2 S-RBD/ACE2 interaction (Q9BYF1 19-615 limits assumed, other chains not shown): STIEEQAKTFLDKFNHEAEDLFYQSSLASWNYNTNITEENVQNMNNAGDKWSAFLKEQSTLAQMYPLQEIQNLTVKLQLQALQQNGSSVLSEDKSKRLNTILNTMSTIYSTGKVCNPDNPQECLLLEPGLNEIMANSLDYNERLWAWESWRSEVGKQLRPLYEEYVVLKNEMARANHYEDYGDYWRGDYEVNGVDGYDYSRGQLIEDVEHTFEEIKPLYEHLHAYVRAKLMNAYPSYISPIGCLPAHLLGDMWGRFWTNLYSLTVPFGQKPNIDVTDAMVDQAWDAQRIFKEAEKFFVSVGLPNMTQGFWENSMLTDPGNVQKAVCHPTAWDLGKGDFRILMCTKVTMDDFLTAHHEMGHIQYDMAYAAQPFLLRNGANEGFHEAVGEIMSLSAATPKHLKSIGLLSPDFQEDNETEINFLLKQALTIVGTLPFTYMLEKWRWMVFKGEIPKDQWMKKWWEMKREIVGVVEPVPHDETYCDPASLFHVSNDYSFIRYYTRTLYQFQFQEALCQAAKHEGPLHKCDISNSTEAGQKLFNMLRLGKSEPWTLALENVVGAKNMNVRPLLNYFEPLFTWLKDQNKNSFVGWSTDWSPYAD

O=C(N/N=C/c1cc([N+](=O)[O-])ccc1Cl)c1cccc(Br)c1 [DC-RA016-1]
inhibition at 20 µM [1]: 3.1%
inhibition at 50 µM [1]: 7.4%

O=C(N/N=C/c1cc([N+](=O)[O-])ccc1Cl)c1ccccc1I [DC-RA016-2]
inhibition at 20 µM [1]: 0.8%
inhibition at 50 µM [1]: 22.5%

O=C(N/N=C/c1cc([N+](=O)[O-])ccc1Cl)c1cccc([N+](=O)[O-])c1 [DC-RA016-3]
inhibition at 20 µM [1]: 1.7%
inhibition at 50 µM [1]: 24.2%

Cc1ccccc1C(=O)N/N=C/c1cc([N+](=O)[O-])ccc1Cl [DC-RA016-4]
inhibition at 20 µM [1]: -3.8%
inhibition at 50 µM [1]: -24.9%

O=C(N/N=C/c1cc([N+](=O)[O-])ccc1Cl)c1ccccc1O [DC-RA016-5]
inhibition at 20 µM [1]: 8.7%
inhibition at 50 µM [1]: 24.9%

O=C(N/N=C/c1cc([N+](=O)[O-])ccc1Cl)c1ccc(O)cc1O [DC-RA016-6]
inhibition at 20 µM [1]: 1.9%
inhibition at 50 µM [1]: 2.9%

O=C(N/N=C/c1cc([N+](=O)[O-])ccc1Cl)c1ccc(O)cc1 [DC-RA016-7]
inhibition at 20 µM [1]: 10.6%
inhibition at 50 µM [1]: 20.2%

O=C(N/N=C/c1cc([N+](=O)[O-])ccc1Cl)c1ccc(O)c(O)c1 [DC-RA016-8]
inhibition at 20 µM [1]: 6.7%
inhibition at 50 µM [1]: -18.3%

O=C(N/N=C/c1ccccc1O)c1cc(O)cc(O)c1 [DC-RA016-9]
inhibition at 20 µM [1]: 0.6%
inhibition at 50 µM [1]: 88.6%
IC50 [1]: 73.8 µM

Cc1ccccc1/C=N/NC(=O)c1cc(O)cc(O)c1 [DC-RA016-10]
inhibition at 20 µM [1]: -6.5%
inhibition at 50 µM [1]: -17.7%

Cc1cccc(/C=N/NC(=O)c2cc(O)cc(O)c2)c1 [DC-RA016-11]
inhibition at 20 µM [1]: 4.8%
inhibition at 50 µM [1]: 12.7%

O=C(N/N=C/c1ccc(Cl)c([N+](=O)[O-])c1)c1cc(O)cc(O)c1 [DC-RA016-12]
inhibition at 20 µM [1]: 61.3%
inhibition at 50 µM [1]: 88.9%
IC50 [1]: 26.1 µM

O=C(N/N=C/c1cc([N+](=O)[O-])ccc1Cl)c1cc(O)cc(O)c1 [DC-RA016]
IC50 (NanoLuc luciferase): > 100 µM
CC50 / IC50 Cytotox (HEK293 cell proliferation) (HEK293 cells): > 100.00 µM
Kd (SARS-CoV-2 S-RBD): 85.1 µM
Binding to SARS-CoV-2 S-RBD by SPR (in words) (SARS-CoV-2 S-RBD): showed binding
CC50 (in vitro): > 100 µM
SI, selectivity index (SARS-CoV-2-S pseudovirus): >4.46
IC50 (SARS-CoV-2-S pseudovirus): 22.4 µM
%I, SARS-CoV-2-S pseudovirus inhibition ratio at MNCC (SARS-CoV-2-S pseudovirus): 52.08%
inhibition at 20 µM [1]: 73.1%
inhibition at 50 µM [1]: 73.1%
IC50 [1]: 26.6 µM
Kd (human ACE2): 147 µM
Binding to human ACE2 by SPR (in words) (human ACE2): could bind
MNCC, maximum non-cytotoxic concentration [2]: 95.81 µM

COc1ccc(C(=O)C[C@]2(O)C(=O)N(CCOc3ccccc3OC)c3ccccc32)c(OC)c1 [DC-RA076]
IC50 (NanoLuc luciferase): > 100 µM
CC50 / IC50 Cytotox (HEK293 cell proliferation) (HEK293 cells): > 100.00 µM
Binding to SARS-CoV-2 S-RBD by SPR (in words) (SARS-CoV-2 S-RBD): no binding
CC50 (in vitro): 24.7 µM
SI, selectivity index (SARS-CoV-2-S pseudovirus): 2.95
IC50 (SARS-CoV-2-S pseudovirus): 8.37 µM
%I, SARS-CoV-2-S pseudovirus inhibition ratio at MNCC (SARS-CoV-2-S pseudovirus): 5.75%
IC50 [1]: 75.6 µM
Binding to human ACE2 by SPR (in words) (human ACE2): no binding
MNCC, maximum non-cytotoxic concentration [2]: 2.64 µM

COc1cc(-c2nc3ccccc3s2)ccc1OCC(=O)Nc1ccc(C)cc1 [DC-RA087]
IC50 (NanoLuc luciferase): > 100 µM
CC50 / IC50 Cytotox (HEK293 cell proliferation) (HEK293 cells): > 100.00 µM
Binding to SARS-CoV-2 S-RBD by SPR (in words) (SARS-CoV-2 S-RBD): No binding
CC50 (in vitro): > 100 µM
SI, selectivity index (SARS-CoV-2-S pseudovirus): >4.75
IC50 (SARS-CoV-2-S pseudovirus): 21.1 µM
%I, SARS-CoV-2-S pseudovirus inhibition ratio at MNCC (SARS-CoV-2-S pseudovirus): 36.74%
IC50 [1]: 86.2 µM
kd to ACE2 (SPR) (human ACE2; immobilized ACE2): 0.3217 s⁻¹
kon (human ACE2; pH 7.4, immobilized ACE2, read-out: ka to ACE2 (SPR)): 56.4 M⁻¹ s⁻¹
Binding to human ACE2 by SPR (in words) (human ACE2): could bind
MNCC, maximum non-cytotoxic concentration [2]: 14.01 µM

CCOc1ccc(N(CC(=O)Nc2ccccc2C(=O)NCc2ccco2)S(=O)(=O)c2ccc(OC)c(OC)c2)cc1 [DC-RA106]
IC50 (NanoLuc luciferase): > 100 µM
CC50 / IC50 Cytotox (HEK293 cell proliferation) (HEK293 cells): > 100.00 µM
Kd (SARS-CoV-2 S-RBD): > 100 µM
Binding to SARS-CoV-2 S-RBD by SPR (in words) (SARS-CoV-2 S-RBD): showed binding
CC50 (in vitro): > 100 µM
SI, selectivity index (SARS-CoV-2-S pseudovirus): >1.41
IC50 (SARS-CoV-2-S pseudovirus): 70.8 µM
%I, SARS-CoV-2-S pseudovirus inhibition ratio at MNCC (SARS-CoV-2-S pseudovirus): 0.14%
IC50 [1]: 24.7 µM
Kd (human ACE2): > 100 µM
Binding to human ACE2 by SPR (in words) (human ACE2): could bind
MNCC, maximum non-cytotoxic concentration [2]: 13.24 µM

C=Cc1c(C)c2cc3nc(cc4[nH]c(cc5nc(cc1[nH]2)C(C)=C5CCC(=O)O)c(CCC(=O)OC)c4C)[C@@]1(C)C3=CC=C(C(=O)OC)[C@H]1C(=O)OC [Visudyne]
Antiviral activity against SARS-CoV-2 pseudovirus (in words) (SARS-CoV-2 pseudovirus; cytotoxicity data not reported, ref Fu et al., 2020): intense antiviral activity

C[C@@]1(C(=O)O)CC[C@]2(C)CC[C@]3(C)C4=CC(=O)c5c(cc(O)c(O)c5C=O)[C@]4(C)CC[C@@]3(C)[C@@H]2C1 [demethylzeylasteral]
Inhibitory activity against SARS-CoV-2 pseudovirus (SARS-CoV-2 pseudovirus; under nontoxic concentration, ref Zhu et al., 2021): approximately 7%

— article PMC8504695, “Structure-Based Virtual Screening and Identification of Potential Inhibitors of SARS-CoV-2 S-RBD and ACE2 Interaction” (Frontiers in Chemistry, 2021)
